Measured values published in paper PMC7679387, “VZHE-039, a novel antisickling agent that prevents erythrocyte sickling under both hypoxic and anoxic conditions” (Scientific Reports, 2020).
“Also recorded” adds a separate entry of the source. Where two headings read alike, the source gives them in different places. Values belong to the molecule of their own block, whether it stands above or below them.

Key:
SS cells [1] = assay: Antisickling activity under anoxia (100% N2); type: cell-based, human; conditions: 2 mM, 100% N2 gas, 30 min
Description: Therefore, another objective in the targeted design of VZHE-039 was to complement its O2-dependent antisickling activity—common to this class of aromatic aldehydes—with an improved O2-independent antisickling activity through proximity-enhanced auxiliary interactions with the αF-helix. Findings from the VZHE-039 crystallographic studies indicate that we achieved the structural objective of enhanced interactions between the methylhydroxy substituent and the αF-helix. We further asked whether these enhanced interactions would translate to an improvement in the O2-independent antisickling activity—as hypothesized. We therefore explored the potential O2-independent activity of VZHE-039, by testing its antisickling properties under complete deoxygenated/anoxic conditions (i.e., 100% N2). […] For internal control purposes, aliquots from samples used for testing for antisickling studies at 2.5% O2 (see above) were also used for testing the antisickling effect of these compounds under 100% N2 gas, therefore, helping elucidate the antisickling effects due to O2-dependent activity of the compounds. Since this experimental design utilized aliquots of the same samples under different gas conditions, it ensured that the assay was free of any potential errors associated with variability in hematocrit and accuracy in drug concentrations.
We conducted two studies to test the antisickling property of VZHE-039 under anoxia to establish the secondary mechanism of action. In the first study, we conducted antisickling studies as described above and also previously reported (2.5% O2)[33], using 2 mM concentrations of VZHE-039, and the controls vanillin, TD-7 and Voxelotor. After 1 h, aliquot samples were fixed with 2% glutaraldehyde without exposure to air. Then the incubation chamber was opened and exposed to air for 15 min to ensure complete re-oxygenation and reversal of the sickled cells to normal round cells. Reversal was confirmed by microscopy. The incubation chamber was then closed, and the assay was repeated under 100% nitrogen gas for 30 min, at which point aliquots were obtained and fixed. Aliquot samples were then subjected to microscopic morphological analysis of bright field images as previously described. Resulting sickled cells (percentages) were compared across samples, and between aliquots of the same samples that had been obtained either under 2.5% oxygen or 100% nitrogen.

SS cells [2] = tested on: SS cells; parameters: method as in PMID 30289405; conditions: previously observed, cited from earlier work
HbS [3] = molecular target: T1, HbS (Homo sapiens, UniProt P69905); parameters: method as in PMID 30289405; conditions: previously observed, cited from earlier work
T1 construct: whole blood suspensions from subjects with homozygous SCD (Hct of 20%); from tissue; host or cells: whole blood / red blood cells of patients with homozygous SS sickle cell disease; lysate for HPLC and OEC
T1 sequence (P69905 2-142): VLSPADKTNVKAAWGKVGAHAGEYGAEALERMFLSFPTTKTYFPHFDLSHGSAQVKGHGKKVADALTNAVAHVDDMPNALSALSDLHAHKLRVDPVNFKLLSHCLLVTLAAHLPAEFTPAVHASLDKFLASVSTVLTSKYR
T1 sequence (P68871 with tags, fused parts or gaps E7V partner): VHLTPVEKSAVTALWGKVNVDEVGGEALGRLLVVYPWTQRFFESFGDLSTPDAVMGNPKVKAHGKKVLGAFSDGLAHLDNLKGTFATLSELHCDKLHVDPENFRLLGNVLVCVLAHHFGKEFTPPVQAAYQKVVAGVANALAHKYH

HbA = molecular target: T2, HbA (Homo sapiens, UniProt P69905); assay: In vitro time-dependent Hb oxygen equilibrium study using normal whole blood (tonometry); type: cell-based; conditions: 2 mM, Hct 30%, 37 °C
T2 construct: fresh normal adult whole blood (Hct of 30%); from tissue; host or cells: normal adult whole blood (red blood cells)
T2 sequence (P69905 2-142 limits assumed): as the sequence (P69905 2-142) above
T2 sequence (P68871 2-147 partner limits assumed): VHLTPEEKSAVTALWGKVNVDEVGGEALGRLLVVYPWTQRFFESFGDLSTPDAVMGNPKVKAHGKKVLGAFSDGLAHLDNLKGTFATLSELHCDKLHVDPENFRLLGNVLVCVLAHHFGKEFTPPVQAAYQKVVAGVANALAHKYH
Description: The antisickling activity of aromatic aldehydes is dependent on Schiff-base interaction between the aldehyde moiety and the Hb αVal1 amines (Schiff-base adduct) and the increase in the protein affinity for oxygen[30]–[40]. […] To overcome this pharmacologic limitation, Tucaresol and Voxelotor, two potent antisickling agents utilized a ortho-hydroxyl moiety (relative to the aldehyde group) on the benzaldehyde ring to form intramolecular hydrogen-bond interaction with the aldehyde group to form hemiacetal-like moiety, which led to significant reduction in oxidative metabolism of the aldehyde[28],[50]. […] VZHE-039, however, incorporates this ortho-hydroxyl moiety on the benzene ring, which is expected to increase its oxidative metabolic stability. This was tested by incubating 2 mM of VZHE-039 (with vanillin and TD-7 as controls) with fresh normal adult whole blood (Hct of 30%) at 37 °C as a surrogate measure of oxidative metabolism. At defined time points (1, 4, 8, 12 and 24 h), aliquot samples were drawn, and subsequently analyzed for their P50-shifts relative to the initial P50 value, using three-point tonometry. In parallel, an untreated control sample was also assessed to control for any time-dependent, but drug-independent changes in P50 values. […] These findings confirm the importance of the ortho-hydroxyl group in aromatic aldehydes in preventing or reducing enzymatic metabolism of aldehyde in RBCs.
Normal whole blood samples (hematocrit 30%) in the absence (control) or presence of 2 mM concentration VZHE-039 (solubilized in DMSO) were incubated at 37 °C for 24 h with shaking (at 140 rpm). At 1, 4, 8, 12 and 24 h time intervals, aliquots of this mixture were removed and then subjected to OEC analysis using tonometry as previously described. Vanillin and TD-7 were used as positive controls, while DMSO was tested as negative control. Briefly, the compound-treated blood samples were incubated in IL 237 tonometers (Instrumentation Laboratories, Inc. Lexington, MA) for approximately 10 min at 37 °C, and allowed to equilibrate at oxygen tensions 6, 20, and 40 mmHg. The samples were then aspirated into an ABL 700 Automated Blood Gas Analyzer (Radiometer) to determine the pH, partial pressure of CO2 (pCO2), partial pressure of oxygen (pO2), and Hb oxygen saturation values (SO2). The measured values of pO2 (mmHg) and SO2 at each pO2 value were then subjected to a non-linear regression analysis using the program Scientist (Micromath, Salt Lake City, UT) to estimate P50 as previously reported.

Hb [4] = molecular target: T3, Hb (Homo sapiens, UniProt P69905); parameters: method as in PMID 30289405; conditions: previously observed, cited from earlier work
T3 construct: whole blood suspensions from subjects with homozygous SCD (Hct of 20%); from tissue; host or cells: whole blood / red blood cells of patients with homozygous SS sickle cell disease; lysate for HPLC and OEC
T3 sequence (P69905 2-142): as the sequence (P69905 2-142) above
T3 sequence (P68871 with tags, fused parts or gaps E7V partner): as the sequence (P68871 with tags, fused parts or gaps E7V partner) above

[5] = experimental animals and humans; cited from earlier work
HbS [6] = molecular target: T1, HbS; assay: Hb modification (HbS adduct formation) by cation-exchange HPLC of lysates from SS cells; type: cell-based; conditions: for Hb Modification: SS cells, 20% hematocrit, HPLC of hemolysates
Experimental: (§1) For our previously studied compounds (e.g., INN-312, TD-7, SAJ-310, INN-298) that incorporate methoxyPy substitution to vanillin analogs, we observed a significant increase in functional and biological activity as a result of increased protein interactions[31],[33],[35],[36]. We therefore expected similar effects for VZHE-039, which we tested by following VZHE-039 activity (measured by Hb adduct formation, P50-shift and RBC sickling inhibition) using SS blood. Briefly, we incubated 0.5, 1, and 2 mM concentrations of VZHE-039 with whole blood suspensions from subjects with homozygous SCD (Hct of 20%) under hypoxic conditions (2.5% O2/97.5% N2) at 37 °C for 2 h for expected peak adduct. Aliquot blood samples were drawn into a fixative (2% glutaraldehyde solution), and sickling was assessed by microscopy[31],[33],[35],[36]. Aliquot samples were also subjected to cation-exchange HPLC analyses to assess the degree of Hb modification to the high-affinity adduct form (Hb adduct formation), as well as standard O2 equilibrium curves (OEC) to assess P50-shifts using hemox analyzer[31],[33],[35],[36]. […] The improved potency of Voxelotor has been attributed to reduced binding stoichiometry, i.e. while Voxelotor binds Hb at a 1:1 ratio, VZHE-039 binds Hb at a 2:1 ratio. […] This observation, as will be discussed later is likely due to a meaningful contribution from the novel O2-independent antisickling activity as result of the strong contact with the αF-helix.
(§2) The effect of VZHE-039 on RBC sickling, Hb modification, and Hb oxygen equilibrium was studied utilizing samples from consented individuals with homozygous SCD following previous procedure. Briefly, blood suspended in Hemox buffer and supplemented with glucose and bovine serum albumin, to a final hematocrit of 20% were incubated under air in the absence or presence of 0.5 mM, 1 mM and 2 mM VZHE-039 at 37 °C for 1 h. This was followed by incubating the suspensions under hypoxic conditions (2.5% O2/97.5% N2) at 37 °C for 2 h. Aliquot samples were obtained and fixed with 2% glutaraldehyde solution without exposure to air, and then subjected to microscopic morphological analysis of bright field images (at × 40 magnification) of single layer cells on an Olympus BX40 microscope fitted with an Infinity 2 camera (Olympus), and the coupled Image Capture software. Leftover samples were washed in phosphate-buffer saline, and hemolyzed in hypotonic lysis buffer for subsequent Hb-modification and oxygen equilibrium analyses.
Finally, for the Hb adduct formation studies, the above clarified lysates were subjected to cation-exchange HPLC (Hitachi D-7000 Series, Hitachi Instruments, Inc., San Jose, CA), using a weak cation-exchange column (Poly CAT A: 30 mm × 4.6 mm, Poly LC, Inc., Columbia, MD). A commercial standard consisting of approximately equal amounts of composite HbF, HbA, HbS and HbC (Helena Laboratories, Beaumont, TX), was utilized as the reference for isotypes. The areas of new peaks, representing HbS adducts, were obtained, calculated as percentage fractions of total Hb area, and reported as levels of modified Hb.

SS RBCs = assay: pO2-dependent degree of sickling in Hemox Analyzer; type: cell-based, human; conditions: 2 mM, Hct 20%
Experimental: In a confirmatory study, a pO2 dependent degree of sickling of VZHE-039 at 1 and 2 mM doses, with Voxelotor as a control was performed using a Hemox analyzer. […] Oksenberg et al.reported similar observations with Voxelotor[28], where the compound lost its potent antisickling activity at low pO2 values.
The second study established pO2 dependent degree of sickling of VZHE-039, with Voxelotor as a control. Concurrently, blood samples, hematocrit 20%, were incubated without any drug (control) or with 1, or 2 mM VZHE-039 at 37 °C for 1 h. A second control sample was incubated with 2 mM Voxelotor. At conclusion, 100 uL aliquots of each suspension were mixed with 2.5 mL Hemox buffer (pH 7.4, supplemented with antifoam), and transferred into the sample chamber of the Hemox Analyzer. Compressed air was then flushed through the sample to ensure complete oxygenation (at 150 mmHg). Nitrogen gas was then introduced into the sample chamber, and 50 uL aliquots were obtained and fixed at defined pO2 values. At conclusion, all fixed samples were subjected to microscopic analysis for their degree of sickling, and results were plotted using Prism Graph Pad software. The experiments were conducted in three replicates on different days, and mean and standard deviation values are reported.

Hb [7] = molecular target: T3, Hb; assay: Oxygen equilibrium (P50 shift) of lysates from SS cells, Hemox Analyzer; type: cell-based; conditions: 20% hematocrit
Experimental: as §1, §2
For the oxygen equilibrium studies, 100 μL aliquot samples from the above clarified lysate were added to 4 mL of 0.1 M potassium phosphate buffer, pH 7.0, in cuvettes and subjected to hemoximetry analysis using a Hemox Analyzer (TCS Scientific Corp.) to determine the P50 values.

SS cells [8] = assay: Antisickling study with SS cells under hypoxia (2.5% O2); type: cell-based, human; conditions: Homo sapiens, 20% hematocrit, […] O2, 37 °C, read-out: Sickling Inhibition
Experimental: as §1, §2

[9] = cited from earlier work

Compound: COc1ccc(OCc2cccc(CO)n2)c(C=O)c1 [TD-7]
Antisickling effect under anoxia (in words) (SS cells [1]): showed some antisickling effect under anoxia, it was significantly less potent than VZHE-039
RBC sickling inhibition (SS cells [2]; 0.5 mM): 16%
RBC sickling inhibition (SS cells [2]; 1 mM): 29%
RBC sickling inhibition (SS cells [2]; 2 mM): 85%
Hb Modification (HbS [3]; 0.5 mM): 26%
Hb Modification (HbS [3]; 1 mM): 45%
Hb Modification (HbS [3]; 2 mM): 74%
Time of maximum effect (P50-shift) (HbA): 1 h
Reduction in activity (P50-shift) at 24 h (HbA; relative to maximum effect): ~ 45%
P50-shift (Hb [4]; 0.5 mM): 10%
P50-shift (Hb [4]; 1 mM): 28%
P50-shift (Hb [4]; 2 mM): 48%

Compound: O=Cc1c(O)cccc1OCc1ccc(C(=O)O)cc1 [Tucaresol, 4[2-formyl-3-hydroxyphenoxymethyl] benzoic acid]
Half-life [5]: > 12 h

Time course of P50-shift (in words) (HbA; 1-24 h): did not have any effects beyond 4 h
Compound: COc1cc(C=O)ccc1O [Vanillin, vanillin]
Antisickling effect under anoxia (in words) (SS cells [1]): showed no effect under anoxic conditions

P50 Shift (ΔP50) (Hb [7]; 0.5 mM): 41%
P50 Shift (ΔP50) (Hb [7]; 1 mM): 80%
Compound: CC(C)n1nccc1-c1ncccc1COc1cccc(O)c1C=O [Voxelotor, reference compound]
Antisickling effect under anoxia (in words) (SS cells [1]): lost its inherent antisickling effects remarkably under anoxic conditions
Hb Modification (HbS [6]; 0.5 mM): 55%
Hb Modification (HbS [6]; 1 mM): 100%
Hb modification (in words) (HbS [6]; 2 mM, samples of the anoxia study): complete Hb modification to the high-O2-affinity form
Half-life [5]: > 12 h
pO2-dependent sickling inhibition (in words) (SS RBCs): completely prevent sickling at high pO2; also recorded: lost this capability at low pO2
inhibition at 500 µM (SS cells [8]; 0.5 mM): 56%
inhibition at 1000 µM (SS cells [8]; 1 mM): 98%
Partitioning into the RBC compartment [9]: 90%
